Measurements taken from patent publication US20240041976A1, “COMPOSITION AND USE” (priority 2020, published 2024).

B1: Garvicin KS: three-peptide leaderless bacteriocin (GarA, GarB, GarC; SEQ ID NO:6-8), peptides synthesized (peptide, listed as Lactococcus garvieae)
chain 1: MGAIIKAGAKIVGKGVLGGGASWLGWNVGEKIWK
chain 2: MGAIIKAGAKIIGKGLLGGAAGGATYGGLKKIFG
chain 3: MGAIIKAGAKIVGKGALTGGGVWLAEKLFGGK

Legend:
Format in all cases: cell-based, Staphylococcus aureus
[1] = system: three MRSA strains (ATCC33591-lux, USA-300 and MRSA 43484); assay: AAMP assay and checkerboard synergy, summary
Protocol: Briefly, equal amounts of antimicrobial A were applied on microtiter plate 1 in wells A1-H1 and then diluted two-fold to wells 2-12. Similarly, equal amounts of antimicrobial B were applied on microtiter plate 2 in wells A1-A12 and diluted two-fold in wells B-H. Volumes of 50 μl of antimicrobial A from each well of microtiter plate 1 were transferred into microtiter plate 3, except for wells H1-H12. Similarly, the same volumes were transferred from microtiter plate 2 into plate 3, except for wells A1-A8. […] A 50 μl volume of pure broth was added into each well in lines H1-H12 and A1-A8 which were used to estimate MIC values of pure substances (blank).
(§1) Three-component synergy was assessed by mixing the three components (100 μg of PenG, 50 μg of GarKS and 2.5 μg of MP1) into one well of a microtiter plate, compared with activity of individual antimicrobials on the same plate.

[2] = system: S. aureus LMG3026; assay: AAMP assay (MIC), single components and formulation mixture; details: for MIC: Staphylococcus aureus, LMG3026, 24 h, read-out: MIC, single component
Protocol: (§2) Antimicrobial activity was measured using the AAMP assay (Wiegand et al., 2008, Nat. Protoc., Vol. 3(2), p 163-175).
as §1, with “plate. The fractional inhibition concentration (FIC) which was used to define synergy was calculated as set forth in Example 1.” for “plate.”

[3] = system: S. aureus LMG3242; assay: as above; details: for MIC: Staphylococcus aureus, LMG3242, 24 h, read-out: MIC, single component
Protocol: as §2
as §1, with “plate. The fractional inhibition concentration (FIC) which was used to define synergy was calculated as set forth in Example 1.” for “plate.”

[4] = system: S. aureus LMG3255; assay: as above; details: for MIC: Staphylococcus aureus, LMG3255, 24 h, read-out: MIC, single component
Protocol: as §2
as §1, with “plate. The fractional inhibition concentration (FIC) which was used to define synergy was calculated as set forth in Example 1.” for “plate.”

[5] = system: S. aureus LMG3258; assay: as above; details: for MIC: Staphylococcus aureus, LMG3258, 24 h, read-out: MIC, single component
Protocol: as §2
as §1, with “plate. The fractional inhibition concentration (FIC) which was used to define synergy was calculated as set forth in Example 1.” for “plate.”

[6] = system: S. aureus LMG3263; assay: as above; details: for MIC: Staphylococcus aureus, LMG3263, 24 h, read-out: MIC, single component
Protocol: as §2
as §1, with “plate. The fractional inhibition concentration (FIC) which was used to define synergy was calculated as set forth in Example 1.” for “plate.”

[7] = system: S. aureus LMG3264; assay: as above; details: for MIC: Staphylococcus aureus, LMG3264, 24 h, read-out: MIC, single component
Protocol: as §2
as §1, with “plate. The fractional inhibition concentration (FIC) which was used to define synergy was calculated as set forth in Example 1.” for “plate.”

[8] = system: S. aureus LMG3265; assay: as above; details: for MIC: Staphylococcus aureus, LMG3265, 24 h, read-out: MIC, single component
Protocol: as §2
as §1, with “plate. The fractional inhibition concentration (FIC) which was used to define synergy was calculated as set forth in Example 1.” for “plate.”

[9] = system: S. aureus LMG3266; assay: as above; details: for MIC: Staphylococcus aureus, LMG3266, 24 h, read-out: MIC, single component
Protocol: as §2
as §1, with “plate. The fractional inhibition concentration (FIC) which was used to define synergy was calculated as set forth in Example 1.” for “plate.”

[10] = system: S. aureus LMG3271; assay: as above; details: for MIC: Staphylococcus aureus, LMG3271, 24 h, read-out: MIC, single component
Protocol: as §2
as §1, with “plate. The fractional inhibition concentration (FIC) which was used to define synergy was calculated as set forth in Example 1.” for “plate.”

[11] = system: S. aureus LMG3307; assay: as above; details: for MIC: Staphylococcus aureus, LMG3307, 24 h, read-out: MIC, single component
Protocol: as §2
as §1, with “plate. The fractional inhibition concentration (FIC) which was used to define synergy was calculated as set forth in Example 1.” for “plate.”

[12] = system: S. aureus LMG3314; assay: as above; details: for MIC: Staphylococcus aureus, LMG3314, 24 h, read-out: MIC, single component
Protocol: as §2
as §1, with “plate. The fractional inhibition concentration (FIC) which was used to define synergy was calculated as set forth in Example 1.” for “plate.”

[13] = system: S. aureus LMG3322; assay: as above; details: for MIC: Staphylococcus aureus, LMG3322, 24 h, read-out: MIC, single component
Protocol: as §2
as §1, with “plate. The fractional inhibition concentration (FIC) which was used to define synergy was calculated as set forth in Example 1.” for “plate.”

[14] = system: S. aureus LMG3328; assay: as above; details: for MIC: Staphylococcus aureus, LMG3328, 24 h, read-out: MIC, single component
Protocol: as §2
as §1, with “plate. The fractional inhibition concentration (FIC) which was used to define synergy was calculated as set forth in Example 1.” for “plate.”

[15] = system: MRSA; assay: MIC of the mixture dissolved in 5% HPC; details: for MIC: Staphylococcus aureus, MRSA, read-out: final MIC of the component in the mixture in HPC
Protocol: as §2
We also tested hydroxypropyl cellulose (HPC) which is a more hydrophilic polymer and commonly used for topical and oral pharmaceutical preparations (Alvarez-Lorenzo et al., 1999, Int. J. Pharmaceutics, Vol. 180(1), p 91-103).

[16] = triple combination PenG, GarKS and MP1

Molecule	MIC of the antimicrobial in comb. with GarKS ([1]; All three strains)	MIC of the component when combined ([1]; MP1 with PenG)	reduction of MIC when combined ([1]; MP1 with PenG)	MIC of the component when combined [1, 16]	reduction of MIC when combined [1, 16]	MIC [2]	MIC [3]	MIC [4]	MIC [5]	MIC [6]	MIC [7]	MIC [8]	MIC [9]	MIC [10]	MIC [11]	MIC [12]	MIC [13]	MIC [14]	MIC [15]	MIC of the component when GarKS and MP1 are combined ([1]; checkerboard assay)	further results
CC1(C)S[C@@H]2[C@H](NC(=O)Cc3ccccc3)C(=O)N2[C@H]1C(=O)O [Penicillin G]	16 µg/mL	16 to 32 µg/mL	80-150 times	8 µg/mL	more than 300 times	> 2500 µg/mL	0.24 µg/mL	< 0.24 µg/mL	64 µg/mL	125 µg/mL	4 µg/mL	125 µg/mL	64 µg/mL	< 0.24 µg/mL	< 0.24 µg/mL	< 0.24 µg/mL	< 0.24 µg/mL	< 0.24 µg/mL	2 µg/mL	–	MIC of GarKS in comb. antibiotic/GarKS/MP1 ([1]; All three strains): 4 µg/mL; MIC of MP1 in comb. antibiotic/GarKS/MP1 ([1]; All three strains): 0.08 µg/mL; MIC of MP1 in comb. with the labelled antibiotic ([1]; All three strains): 0.16 to 0.3 µg/mL; MIC of the antibiotic in comb. with GarKS and MP1 ([1]; All three strains): 8 µg/mL; MIC of the antibiotic in comb. with MP1 ([1]; All three strains): 16 to 32 µg/mL; MIC of the component when combined ([1]; GarKS with Amp or PenG): 16 µg/mL; MIC ([1]; Staphylococcus aureus, 24 h, All three strains, read-out: MIC, single antimicrobial): > 2500 µg/mL; synergy with GarKS ([1]; checkerboard assay): moderate synergy
C/C=C(\NC(=O)c1csc(-c2csc(-c3ccc4c(n3)-c3csc(n3)[C@H]([C@@H](C)O)NC(=O)c3csc(n3)[C@H](C(C)C)NC(=O)c3csc(n3)/C(=C/C)NC(=O)[C@H]([C@@H](C)O)NC(=O)c3csc-4n3)n2)n1)C(=O)NC[C@@H](C)O [MP1, micrococcin P1]	0.16 µg/mL	0.16 to 0.3 µg/mL	8-16 times	0.08 µg/mL	about 30 times	> 1.8 µg/mL	0.4 µg/mL	> 1.8 µg/mL	1.8 µg/mL	1.8 µg/mL	> 1.8 µg/mL	1.8 µg/mL	> 1.8 µg/mL	> 1.8 µg/mL	0.9 µg/mL	0.4 µg/mL	> 1.8 µg/mL	0.9 µg/mL	0.04 µg/mL	0.16 µg/mL	–
B1	–	–	–	4 µg/mL	about 8 times	–	–	–	–	–	–	–	–	–	–	–	–	–	–	8 µg/mL	reduction of MIC when combined ([1]; GarKS with Amp or PenG): 4 times; MIC, single component ([2]; LMG3026): 16 µg/mL; MIC, single component ([3]; LMG3242): 32 µg/mL; MIC, single component ([4]; LMG3255): 32 µg/mL; MIC, single component ([5]; LMG3258): 32 µg/mL; MIC, single component ([6]; LMG3263): 16 µg/mL; MIC, single component ([7]; LMG3264): 32 µg/mL; MIC, single component ([8]; LMG3265): 16 µg/mL; MIC, single component ([9]; LMG3266): 32 µg/mL; MIC, single component ([10]; LMG3271): 32 µg/mL; MIC, single component ([11]; LMG3307): 32 µg/mL; MIC, single component ([12]; LMG3314): 32 µg/mL; MIC, single component ([13]; LMG3322): 16 µg/mL; MIC, single component ([14]; LMG3328): 32 µg/mL; final MIC of the component in the mixture in HPC [15]: 2 µg/mL
